Assay results from patent US20110021547A1, “Substantially Pure and a Stable Crystalline Form of Bosentan” (ACTAVIS GROUP PTC EHF, priority 2008, published 2011).
Like-named read-outs stand apart in the source and are kept apart here.

Tests used:
[1] = cited from earlier work
Tapped density = format: physicochemical
[2] = Particle size distribution by laser diffraction (Malvern Master Sizer 2000); format: physicochemical
From the text: As used herein, DX means that X percent of the particles have a diameter less than a specified diameter D. Thus, a D90 or d(0.9) of less than 300 microns means that 90 volume-percent of the micronized particles in a composition have a diameter less than 300 microns.
As used herein, “Particle Size Distribution (P.S.D)” means the cumulative volume size distribution of equivalent spherical diameters as determined by laser diffraction in Malvern Master Sizer 2000 equipment or its equivalent. “Mean particle size distribution, i.e., D50” correspondingly, means the median of said particle size distribution.

[3] = Storage stability of crystalline form A5 (temperature / relative humidity); format: physicochemical
Experimental: The term “remains stable”, as defined herein, refers to lack of formation of impurities, while being stored as described herein. The stability of crystalline form A5 is measured by maintaining crystalline form A5 at a temperature of about 40° C. at a relative humidity of about 75% for at least about 1 month, specifically for a period of 6 months, or at a temperature of about 25° C. at a relative humidity of about 60% for at least about 6 months.

[4] = Polymorphic stability of form A5 after compression or particle size reduction; format: physicochemical
Experimental: The X-Ray powder diffraction was measured by an X-ray powder Diffractometer equipped with a Cu-anode (λ=1.54 Angstrom), X-ray source operated at 40 kV, 40 mA and a Ni filter is used to strip K-beta radiation. Two-theta calibration is performed using an NIST SRM 1976, Corundum standard. The sample was analyzed using the following instrument parameters: measuring range=3-45° 2θ; step width=0.01579°; and measuring time per step=0.11 second.

COc1ccccc1Oc1c(NS(=O)(=O)c2ccc(C(C)(C)C)cc2)nc(-c2ncccn2)nc1OCCO [Bosentan, p-tert-butyl-N-[6-(2-hydroxyethoxy)-5-(2-methoxyphenoxy)-2-(2-pyrimidinyl)-4-pyrimidinyl]benzenesulfonamide monohydrate]
solubility in aqueous solution at low pH ([1]; pH 1.1): 0.1 mg/100 ml | solubility in aqueous solution at low pH ([1]; pH 4.0): 0.1 mg/100 ml | solubility in aqueous solution at low pH ([1]; pH 5.0): 0.2 mg/100 ml | solubility in water ([1]; water): 1.0 mg/100 ml

COc1ccccc1Oc1c(NS(=O)(=O)c2ccc(C(C)(C)C)cc2)nc(-c2ncccn2)nc1OCCO [Example 3, Bosentan]
Tapped density (Tapped density): 0.668 g/mL

COc1ccccc1Oc1c(NS(=O)(=O)c2ccc(C(C)(C)C)cc2)nc(-c2ncccn2)nc1OCCO [Example 4, Bosentan]
Tapped density (Tapped density): 0.714 g/mL

COc1ccccc1Oc1c(NS(=O)(=O)c2ccc(C(C)(C)C)cc2)nc(-c2ncccn2)nc1OCCO [Example 5, Bosentan]
Tapped density (Tapped density): 0.626 g/mL

COc1ccccc1Oc1c(NS(=O)(=O)c2ccc(C(C)(C)C)cc2)nc(-c2ncccn2)nc1OCCO [Example 6, Bosentan]
Tapped density (Tapped density): 0.667 g/mL

COc1ccccc1Oc1c(NS(=O)(=O)c2ccc(C(C)(C)C)cc2)nc(-c2ncccn2)nc1OCCO [Example 7, Bosentan]
Particle Size Distribution d(0.1) [2]: 13.39 microns | Particle Size Distribution d(0.5) [2]: 85.61 microns | Particle Size Distribution d(0.9) [2]: 231.09 microns

COc1ccccc1Oc1c(NS(=O)(=O)c2ccc(C(C)(C)C)cc2)nc(-c2ncccn2)nc1OCCO [Example 8, Bosentan]
Particle Size Distribution d(0.9) [2]: less than 60 microns

COc1ccccc1Oc1c(NS(=O)(=O)c2ccc(C(C)(C)C)cc2)nc(-c2ncccn2)nc1OCCO [Example 9, Bosentan]
Particle Size Distribution d(0.9) [2]: less than 130 microns

COc1ccccc1Oc1c(NS(=O)(=O)c2ccc(C(C)(C)C)cc2)nc(-c2ncccn2)nc1OCCO [Example 9A, Bosentan]
Particle Size Distribution d(0.5) [2]: 28.95 microns | Particle Size Distribution d(0.9) [2]: 120.88 microns

COc1ccccc1Oc1c(NS(=O)(=O)c2ccc(C(C)(C)C)cc2)nc(-c2ncccn2)nc1OCCO [Example 9B, Bosentan]
Particle Size Distribution d(0.1) [2]: 11.76 microns | Particle Size Distribution d(0.5) [2]: 38.96 microns | Particle Size Distribution d(0.9) [2]: 78.25 microns

COc1ccccc1Oc1c(NS(=O)(=O)c2ccc(C(C)(C)C)cc2)nc(-c2ncccn2)nc1OCCO [Example 9C, Bosentan]
Particle Size Distribution d(0.1) [2]: 7.89 microns | Particle Size Distribution d(0.5) [2]: 31.92 microns | Particle Size Distribution d(0.9) [2]: 69.43 microns

COc1ccccc1Oc1c(NS(=O)(=O)c2ccc(C(C)(C)C)cc2)nc(-c2ncccn2)nc1OCCO [Example 9D, Bosentan]
Particle Size Distribution d(0.1) [2]: 14.85 microns | Particle Size Distribution d(0.5) [2]: 53.73 microns | Particle Size Distribution d(0.9) [2]: 109.61 microns

COc1ccccc1Oc1c(NS(=O)(=O)c2ccc(C(C)(C)C)cc2)nc(-c2ncccn2)nc1OCCO [Example 9E, Bosentan]
Particle Size Distribution d(0.1) [2]: 17.03 microns | Particle Size Distribution d(0.5) [2]: 58.84 microns | Particle Size Distribution d(0.9) [2]: 127.11 microns

COc1ccccc1Oc1c(NS(=O)(=O)c2ccc(C(C)(C)C)cc2)nc(-c2ncccn2)nc1OCCO [bosentan crystalline form A5, Bosentan]
stability on storage, tendency to convert to other forms ([3]; about 25° C., relative humidity about 60%, at least about 6 months): more stable | crystalline form and stability on storage ([3]; about 25±2° C., relative humidity about 60±5%, 6 months): remains in the same crystalline form and stable | crystalline form and stability on storage ([3]; about 25±2° C., relative humidity about 60±5%, at least one month): remains in the same crystalline form and stable | stability on storage, tendency to convert to other forms ([3]; about 40° C., relative humidity about 75%, at least about 1 month, specifically 6 months): more stable | crystalline form and stability on storage ([3]; about 40±2° C., relative humidity about 75±5%, 6 months): remains in the same crystalline form and stable | crystalline form and stability on storage ([3]; about 40±2° C., relative humidity about 75±5%, at least one month): remains in the same crystalline form and stable | crystalline form and stability after mechanical particle size reduction ([4]; cutting, chipping, crushing, milling, grinding, micronizing): remains in the same crystalline faun and stable | crystalline form and stability after compression ([4]; pressure of about 7.5 tons/cm^2 for 10 to 15 minutes, checked by X-ray diffractometer): remains in the same crystalline form and stable
